Data published in the supplement of paper PMC10307832.

Columns and labels:
Experiment in all cases: relative viability (nuclei count vs DMSO), 5 days (fraction); higher = more cells survive
COR-L 105 = tested on: COR-L 105
In short: (§1)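 Values are medians from duplicate plates. Each reflects relative viability, defined as the nuclei count of treated wells over that of vehicle wells. Lung cancer cell lines in 1536-well plates were pin-tool dosed one day after seeding with one drug alone or with a fixed anchor-drug dose plus five library-drug doses (not always all listed) in √10 steps, then fixed, stained and imaged at 4× after 5 days.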

NCI-H1395 = tested on: NCI-H1395
In short: as §1

EMC-BAC-2 = tested on: EMC-BAC-2
In short: as §1

H3255 = tested on: H3255
In short: as §1

NCI-H2126 = tested on: NCI-H2126
In short: as §1

NCI-H2087 = tested on: NCI-H2087
In short: as §1

HOP-62 = tested on: HOP-62
In short: as §1

LOU-NH91 = tested on: LOU-NH91
In short: as §1

UMC-11 = tested on: UMC-11
In short: as §1

201T = tested on: 201T
In short: as §1

SK-MES-1 = tested on: SK-MES-1
In short: as §1

SW 900 = tested on: SW 900
In short: as §1

BEN = tested on: BEN
In short: as §1

NCI-H2170 = tested on: NCI-H2170
In short: as §1

HCC-78 = tested on: HCC-78
In short: as §1

LXF-289 = tested on: LXF-289
In short: as §1

HARA = tested on: HARA
In short: as §1

RERF-LC-KJ = tested on: RERF-LC-KJ
In short: as §1

LC-2-ad = tested on: LC-2-ad
In short: as §1

NCI-H650 = tested on: NCI-H650
In short: as §1

LU99A = tested on: LU99A
In short: as §1

NCI-H1993 = tested on: NCI-H1993
In short: as §1

CCNC(=O)c1noc(-c2cc(C(C)C)c(O)cc2O)c1-c1ccc(CN2CCOCC2)cc1 [Luminespib] + CC(=O)c1c(C)c2cnc(Nc3ccc(N4CCNCC4)cn3)nc2n(C2CCCC2)c1=O [Palbociclib] (partner 0.5 µM)
relative viability (COR-L 105; first compound 0.002 µM): 0.412
relative viability (COR-L 105; first compound 0.006325 µM): 0.445
relative viability (COR-L 105; first compound 0.02 µM): 0.366
relative viability (COR-L 105; first compound 0.06325 µM): 0.265
relative viability (COR-L 105; first compound 0.2 µM): 0.289
relative viability (NCI-H1395; first compound 0.002 µM): 0.645
relative viability (NCI-H1395; first compound 0.006325 µM): 0.631
relative viability (NCI-H1395; first compound 0.02 µM): 0.498
relative viability (NCI-H1395; first compound 0.06325 µM): 0.338
relative viability (NCI-H1395; first compound 0.2 µM): 0.344
relative viability (EMC-BAC-2; first compound 0.002 µM): 0.543
relative viability (EMC-BAC-2; first compound 0.006325 µM): 0.495
relative viability (EMC-BAC-2; first compound 0.02 µM): 0.424
relative viability (EMC-BAC-2; first compound 0.06325 µM): 0.398
relative viability (EMC-BAC-2; first compound 0.2 µM): 0.31
relative viability (H3255; first compound 0.002 µM): 0.325
relative viability (H3255; first compound 0.006325 µM): 0.304
relative viability (H3255; first compound 0.02 µM): 0.308
relative viability (H3255; first compound 0.06325 µM): 0.281
relative viability (H3255; first compound 0.2 µM): 0.296
relative viability (NCI-H2126; first compound 0.002 µM): 0.337
relative viability (NCI-H2126; first compound 0.006325 µM): 0.325
relative viability (NCI-H2126; first compound 0.06325 µM): 0.351
relative viability (NCI-H2126; first compound 0.2 µM): 0.393
relative viability (NCI-H2087; first compound 0.002 µM): 0.205
relative viability (NCI-H2087; first compound 0.006325 µM): 0.232
relative viability (NCI-H2087; first compound 0.02 µM): 0.185
relative viability (NCI-H2087; first compound 0.06325 µM): 0.11
relative viability (NCI-H2087; first compound 0.2 µM): 0.114
relative viability (HOP-62; first compound 0.002 µM): 0.451
relative viability (HOP-62; first compound 0.006325 µM): 0.449
relative viability (HOP-62; first compound 0.02 µM): 0.594
relative viability (HOP-62; first compound 0.06325 µM): 0.384
relative viability (HOP-62; first compound 0.2 µM): 0.235
relative viability (LOU-NH91; first compound 0.002 µM): 0.557
relative viability (LOU-NH91; first compound 0.006325 µM): 0.533
relative viability (LOU-NH91; first compound 0.02 µM): 0.503
relative viability (LOU-NH91; first compound 0.06325 µM): 0.375
relative viability (LOU-NH91; first compound 0.2 µM): 0.354
relative viability (UMC-11; first compound 0.002 µM): 0.32
relative viability (UMC-11; first compound 0.006325 µM): 0.303
relative viability (UMC-11; first compound 0.02 µM): 0.296
relative viability (UMC-11; first compound 0.06325 µM): 0.273
relative viability (UMC-11; first compound 0.2 µM): 0.2
relative viability (201T; first compound 0.002 µM): 0.363
relative viability (201T; first compound 0.006325 µM): 0.366
relative viability (201T; first compound 0.02 µM): 0.309
relative viability (201T; first compound 0.06325 µM): 0.352
relative viability (201T; first compound 0.2 µM): 0.356
relative viability (SK-MES-1; first compound 0.002 µM): 0.296
relative viability (SK-MES-1; first compound 0.006325 µM): 0.335
relative viability (SK-MES-1; first compound 0.02 µM): 0.368
relative viability (SK-MES-1; first compound 0.06325 µM): 0.151
relative viability (SK-MES-1; first compound 0.2 µM): 0.172
relative viability (SW 900; first compound 0.002 µM): 0.577
relative viability (SW 900; first compound 0.006325 µM): 0.566
relative viability (SW 900; first compound 0.02 µM): 0.549
relative viability (SW 900; first compound 0.06325 µM): 0.144
relative viability (SW 900; first compound 0.2 µM): 0.134
relative viability (BEN; first compound 0.002 µM): 0.472
relative viability (BEN; first compound 0.006325 µM): 0.468
relative viability (BEN; first compound 0.02 µM): 0.438
relative viability (BEN; first compound 0.06325 µM): 0.409
relative viability (BEN; first compound 0.2 µM): 0.323
relative viability (NCI-H2170; first compound 0.002 µM): 0.41
relative viability (NCI-H2170; first compound 0.006325 µM): 0.383
relative viability (NCI-H2170; first compound 0.06325 µM): 0.376
relative viability (NCI-H2170; first compound 0.2 µM): 0.315
relative viability (HCC-78; first compound 0.002 µM): 0.461
relative viability (HCC-78; first compound 0.02 µM): 0.467
relative viability (HCC-78; first compound 0.06325 µM): 0.51
relative viability (HCC-78; first compound 0.2 µM): 0.427
relative viability (LXF-289; first compound 0.002 µM): 0.582
relative viability (LXF-289; first compound 0.006325 µM): 0.569
relative viability (LXF-289; first compound 0.02 µM): 0.601
relative viability (LXF-289; first compound 0.06325 µM): 0.574
relative viability (LXF-289; first compound 0.2 µM): 0.535
relative viability (HARA; first compound 0.002 µM): 0.221
relative viability (HARA; first compound 0.006325 µM): 0.221
relative viability (HARA; first compound 0.02 µM): 0.213
relative viability (HARA; first compound 0.06325 µM): 0.253
relative viability (HARA; first compound 0.2 µM): 0.11
relative viability (RERF-LC-KJ; first compound 0.002 µM): 1.04
relative viability (RERF-LC-KJ; first compound 0.006325 µM): 1.01
relative viability (RERF-LC-KJ; first compound 0.02 µM): 1.02
relative viability (RERF-LC-KJ; first compound 0.06325 µM): 0.269
relative viability (RERF-LC-KJ; first compound 0.2 µM): 0.227
relative viability (LC-2-ad; first compound 0.002 µM): 0.473
relative viability (LC-2-ad; first compound 0.006325 µM): 0.486
relative viability (LC-2-ad; first compound 0.02 µM): 0.556
relative viability (LC-2-ad; first compound 0.06325 µM): 0.478
relative viability (LC-2-ad; first compound 0.2 µM): 0.331
relative viability (NCI-H650; first compound 0.002 µM): 0.39
relative viability (NCI-H650; first compound 0.006325 µM): 0.283
relative viability (NCI-H650; first compound 0.02 µM): 0.277
relative viability (NCI-H650; first compound 0.06325 µM): 0.181
relative viability (NCI-H650; first compound 0.2 µM): 0.0632
relative viability (LU99A; first compound 0.002 µM): 0.369
relative viability (LU99A; first compound 0.006325 µM): 0.379
relative viability (LU99A; first compound 0.02 µM): 0.272
relative viability (LU99A; first compound 0.06325 µM): 0.428
relative viability (LU99A; first compound 0.2 µM): 0.417
relative viability (NCI-H1993; first compound 0.002 µM): 0.714
relative viability (NCI-H1993; first compound 0.006325 µM): 0.611
relative viability (NCI-H1993; first compound 0.02 µM): 0.473
relative viability (NCI-H1993; first compound 0.06325 µM): 0.716
relative viability (NCI-H1993; first compound 0.2 µM): 0.413
